Here are results for 41 compounds from PubChem BioAssay (NCI).

Values joined by “and” are separate entries in the source; they are usually repeats but may differ in a detail not shown here. Equal entries are not always repeated.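 48-hour exposure; five concentrations; linearly interpolated endpoints. Here, GI50 denotes the concentration required for 50% inhibition of growth. TGI marks complete inhibition of growth.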 *1 amine or outer side, *2 acyl side, *3 side chain or, on linkers, in order; H or OH if unused. Where a SMILES comes first, the peptide text is derived from it. Bridges are numbered along the chain shown (N, C = ends). [ ]: non-standard residue; d: D form. The star is where a group is joined. Phe(3-Me) = Cc1cccc(C[C@H](N)C(=O)O)c1; NH(4-Cl-2-F-phenyl) = Fc1cc(Cl)ccc1N*; Pro(4R-Me) = C[C@H]1CN[C@H](C(=O)O)C1; Propanoyl(3-NMe2) = CN(C)CCC(=O)*; Hyp = O=C(O)[C@@H]1C[C@@H](O)CN1; aThr = C[C@H](O)[C@H](N)C(=O)O; Pip = O=C(O)[C@@H]1CCCCN1; CO = O=C([*:1])[*:2]

The subject of the experiment is MDA-MB-468 breast. Briefly: inhibition of tumour cell growth, NCI panel, 48 h.
In the case of `O=C1c2cccnc2C(=O)c2c1c(C(=O)OCCN1CCOCC1)c1ccccn21`, the GI50 is 1.51 µM and the TGI was 6.74 µM.
With `CCN1CCN(C(=O)[C@]23CCC(C)(C)C[C@@H]2C2=CC[C@@H]4[C@@]5(C)C/C(=C/c6cccnc6)C(=O)C(C)(C)[C@@H]5CC[C@@]4(C)[C@]2(C)CC3)CC1`, the GI50 is 1.28 µM and the TGI was found to be 3.94 µM.
Take `Cc1ccccc1/C=C1\CN(C(=O)OC(C)(C)C)C/C(=C\c2ccccc2C)C1=O`: the GI50 was 1.83 µM and the TGI was 4.45 µM.
The corresponding values for `COc1cc2c3c(c4c5ccccc5[nH]c4c2c(OC)c1OC)C(=O)N(CCN1CCCCC1)C3=O` are 1.6 µM and 19.2 µM.
For `C[C@]12CC[C@H]3[C@@H](C[C@@H]4N=C(c5ccc(O)cc5)S[C@@]45C[C@H](O)CC[C@]35C)[C@@H]1CC[C@@H]2O`, the GI50 was 5.13 µM and the TGI was 41.6 µM.
For `O=C(/C=C/c1cccnc1)c1ccccc1O` the same measures were 15.1 µM and 37.3 µM.
For `CC[C@@]1(O)C(=O)OCc2c1cc1n(c2=O)Cc2c-1nc1ccccc1c2/C=N/OC(C)(C)C`, the GI50 is under 0.01 µM and the TGI turned out to be 0.0592 µM.
Take `COc1ccc(Cn2c(Br)c3c(c2-c2cc(OC)c(OC)c(OC)c2)CCc2sc(NC(C)=O)nc2-3)cc1`: the GI50 is 4.86 µM and the TGI was 46.3 µM.
Turning to `CN1CCCN(C(c2ccccc2)c2ccc(Br)cc2)CC1` (configuration not stated), the GI50 was 1.93 µM and the TGI was 6.53 µM.
The corresponding values for `C=C1N(C)c2ccc(Cl)cc2C1(C)C` are 2.64 µM and 15.6 µM.
Take `O=S(=O)(NCCCNc1cc(-c2cn(-c3ccccc3)nc2-c2cccc(O)c2)ccn1)c1ccc(Cl)cc1`: the GI50 is 1.16 µM and the TGI is 4.56 µM.
As for `CCCN1CCN(c2ccc3nc(-c4ccc5nc(-c6ccc(OCC)c(OCC)c6)[nH]c5c4)[nH]c3c2)CC1`, the GI50 is 0.369 µM and the TGI turned out to be 1.3 µM.
With `CSc1nc2c(c(=O)[nH]1)C(c1ccc(Cl)cc1)C1=C(N2)/C(=C/c2ccc(Cl)cc2)CNC1` (configuration not stated), the GI50 was 1.8 µM and the TGI was 4.02 µM.
As for `Nc1nc2c(c3cnccc13)C(c1cccc(Cl)c1)Cc1cnccc1-2` (configuration not stated), the GI50 is 0.21 µM and the TGI came out at 0.576 µM.
For `O=C(Nc1ccc(Br)cc1F)c1cc(Br)ccc1O`, the GI50 is 0.873 µM and the TGI was 5.42 µM.
For `COc1cc(OC)cc(-c2cncn2-c2ccc(-c3nc4cc(OC)c(OC)c(OC)c4s3)cc2)c1` the same measures were 10.7 µM and over 100 µM.
`O=C(CN1CCN(c2ccc(Cl)cc2)CC1)N1CCN(c2nnc(-c3ccccc3)c(-c3ccccc3)n2)CC1`: the GI50 is 1.83 µM and the TGI stood at 53.3 µM.
Consider `NC[C@@](O)(c1ccc(Cl)cc1)c1ccc(-c2cn[nH]c2)cc1`, for which the GI50 is 1.08 µM and 0.54 µM; the TGI was 3.79 µM and 2.01 µM.
With `COc1cc(C2C(C#N)=C(N)Oc3cc(O)ccc32)cc(OC)c1OC` (configuration not stated), the GI50 was 0.28 µM and the TGI turned out to be 1.14 µM.
Consider `C/C(=N\NC(=O)c1ccncc1)c1ccc(O)cc1O`, for which the GI50 is 4.16 µM and the TGI turned out to be 50.8 µM.
For `Cc1cccc(C[C@H](NC(=O)Nc2ccc(Cl)cc2F)C(=O)N[C@@H]2C(=O)N3C[C@H](OC(=O)CCN(C)C)C[C@H]3C(=O)N3CCCC[C@H]3C(=O)N[C@@H](C)C(=O)N3C[C@H](C)C[C@H]3C(=O)O[C@H]2C)c1` ({NH(4-Cl-2-F-phenyl)-CO}-[Phe(3-Me)][aThr][Hyp](Propanoyl(3-NMe2))[Pip]A[Pro(4R-Me)]; ester 2-C), the GI50 is 0.255 µM and the TGI amounted to 0.894 µM.
The corresponding values for `CCOC(=O)Nc1cccc(-n2cnc3cc(-c4ccc(O)cc4)ccc32)c1` are 0.243 µM and 10.6 µM.
Take `CC/C=C\C/C=C\C[C@H]1C/C=C2/C(=O)C=C[C@H]2C/C=C\CCC(=O)O1`: the GI50 is 1.86 µM and the TGI came out at 5 µM.
Take `CC[C@]12CCCN3CC[C@]4(C(=C(C(=O)OC)C1)Nc1ccccc14)[C@@H]32`: the GI50 was 11.7 µM and the TGI amounted to 28 µM.
With `C[C@@]1(N2C(=O)OC[C@@H]2c2ccccc2)C(=O)N([C@H](CC(=O)N2CCC(N3CCCCC3)CC2)C(=O)NCc2cccc(C(F)(F)F)c2)[C@@H]1/C=C/c1ccccc1`, the GI50 is 1.9 µM and the TGI amounted to 3.77 µM.
For the compound `O=C(CCl)Nc1ccc2c(c1)C(=O)c1ccc(NC(=O)CCl)cc1C2=O`, the GI50 was 0.425 µM and the TGI was 1.55 µM.
The corresponding values for `COc1ccc(-c2nc(C(Cl)Cl)nc3cc(-c4ccccc4)nn23)cc1` are 1.09 µM and 3.1 µM.
Regarding `CC1Cc2cc(O)ccc2C2[C@@H]1C1CC[C@H](O)[C@@]1(C)C[C@@H]2O[N+](=O)[O-]` (some centres not stated), the GI50 is 27.6 µM and the TGI is over 100 µM.
Take `CC(C)Oc1ccc(C(=O)N[C@H](CNC(=O)CN(C)C)Cc2ccc(-c3cn4cccc([C@H](C)O)c4n3)cc2)cc1Cl`: the GI50 is 0.0389 µM and the TGI is 17.5 µM.
Turning to `COc1cc2c3c(n(CCCN4CCCC4)c(=O)c2cc1OC)-c1cc2c(cc1C3=O)OCO2`, the GI50 was 1.57 µM and the TGI was determined as 3.17 µM.
As to `Cc1ccc(NC(=O)c2nc(S(C)=O)oc2-c2ccc(F)cc2)cc1Nc1nccc(-c2cccnc2)n1` (configuration not stated), the GI50 is 2.14 µM and the TGI came out at 4.65 µM.
On to `COc1ccc(/C=C/C(=O)c2ccc(Nc3ccnc4cc(Cl)ccc34)cc2)cc1`, for which the GI50 was over 100 µM and the TGI is over 100 µM.
In the case of `O=C(O)c1cc(Sc2ccc([N+](=O)[O-])c(C(=O)O)c2)ccc1[N+](=O)[O-]`, the GI50 was over 100 µM and the TGI is over 100 µM.
Take `CCc1ccc(Nc2cc(C)nc3nc(C)nn23)cc1`: the GI50 was 28.6 µM and the TGI was over 100 µM.
In the case of `CC(C)[C@@H]1CC[C@@H]2[C@@H]1[C@H](OC(=O)/C=C/c1ccccc1)[C@]1(C(C)C)C[C@@H](OC(=O)CO)[C@@]2(C)O1`, the GI50 is 6.07 µM and the TGI stood at 12.6 µM.
`COc1ccc(-c2nocc2-c2cc(OC)c(OC)c(OC)c2)cc1`: the GI50 was 0.105 µM and the TGI came to 18.6 µM.
Regarding `COc1ccc(Nc2ncccc2C(=O)NCc2cn(Cc3cccc(Oc4ccccc4)c3)nn2)cc1`, the GI50 is 2.32 µM and the TGI was found to be 6.95 µM.
Turning to `CC(=O)Nc1sc2c(c1-c1nc3ccccc3s1)CNC2`, the GI50 was 1.88 µM and the TGI is 7.24 µM.
`N=c1ccn2c(n1)O[C@@H]1[C@@H](O)[C@H](CO)O[C@@H]12`: the GI50 was 48.4 µM and the TGI is over 100 µM.
For the compound `Nc1c(C(=O)Nc2ccccc2)sc2nc3c(cc12)CCCC3`, the GI50 is 0.317 µM and the TGI stood at 47.9 µM.
For `COc1cc(NC(N)=NCCC(C)(C)c2ccc(C(F)(F)F)cc2)ncc1C#N` the same measures were 1.24 µM and 2.8 µM.
